# Measurements taken from patent publication US20080255053A1, “METHOD FOR THE THERAPEUTIC MANAGEMENT OF ENDOMETRIOSIS” (Aeterna Zentaris GmbH, priority 1999, published 2008).
# Non-standard residues stand in square brackets, D forms with d. Residues, ends and D or L forms follow the SMILES beside them. dPhe(4-Cl) = N[C@H](Cc1ccc(Cl)cc1)C(=O)O; d2Nal = N[C@H](Cc1ccc2ccccc2c1)C(=O)O; dCit = NC(=O)NCCC[C@@H](N)C(=O)O; d3Pal = N[C@H](Cc1cccnc1)C(=O)O
# Tested on: patients with confirmed endometriosis
# Assay: Weekly 3 mg Cetrorelix for 8 weeks in patients with confirmed endometriosis
# Format: in vivo, human
# Conditions: 3 mg weekly for 8 weeks
structure (smiles),measurement,setting,value
CC(=O)N[C@H](Cc1ccc2ccccc2c1)C(=O)N[C@H](Cc1ccc(Cl)cc1)C(=O)N[C@H](Cc1cccnc1)C(=O)N[C@@H](CO)C(=O)N[C@@H](Cc1ccc(O)cc1)C(=O)N[C@H](CCCNC(N)=O)C(=O)N[C@@H](CC(C)C)C(=O)N[C@@H](CCCNC(=N)N)C(=O)N1CCC[C@H]1C(=O)N[C@H](C)C(N)=O [Cetrorelix acetate] (Ac-[d2Nal][dPhe(4-Cl)][d3Pal]SY[dCit]LRP[dA]-NH2),hot flushes or other hormonal (estradiol) withdrawal symptoms,,avoiding any hot flushes or other withdrawal symptoms
same,proliferation of the endometrium at the end of treatment (histological biopsies),,no proliferation of the endometrium
same,hot flushes or other hormonal (estradiol) withdrawal symptoms,listed as Cetrorelix,without any signs of estradiol withdrawal symptoms
same,proliferation of the endometrium at the end of treatment (histological biopsies),listed as Cetrorelix,without proliferation of the endometrium
